Reference: patent US11827917B1, “Methods for the conversion of fermentable sugars to ethanol” (Colorado State University Research Foundation, priority 2020, dated 2023)
Entries after “also recorded” stand apart in the source; their conditions may differ. Marks after values point to notes of the source that are not given here.

Experiments:
Assay type in all cases: cell-based, Saccharomyces cerevisiae
S. cerevisiae JAY 270 [1] = assay: Screening of growth in 24-well plates on YPDA; details: for Cell growth score (colony size): YPDA, 30° C., 24 h; for Effect on cell growth in the plate assay (words): tested concentrations, 24-well plates
Description: Procedure: An inoculum culture of S. cerevisiae JAY 270 was grown in 100 mL of yeast extract-peptone-dextrose (YPD) medium (10 g/L yeast extract, 20 g/L peptone, 20 g/L glucose) in 200-mL serum bottles overnight in a shaker at 30° C. and 200 rpm. The cells were collected by centrifuging 10 min at 4000×g and 4° C. To wash off the medium residue, the cell pellet was resuspended in 30 mL of sterile 0.8% (w/v) NaCl solution and centrifuged at 4000×g for 10 min. The cell pellet was washed twice. Finally, the cell pellet was resuspended and diluted in 0.8% (w/v) NaCl to achieve cell concentrations of OD600=0.02 and 0.2.
The eight compounds were added in YPDA separately at 0.03%, 0.05%, 0.1%, and 0.2% (w/v). The standard control treatment contained only YPDA medium without addition of these compounds. Since the TrpOH and TyrOH stock solutions were dissolved in DMSO, the controls for those tests were YPDA with the same concentration of DMSO. A 3-mL aliquot of YPDA medium with or without the test compounds were loaded in each well of the 24-well plate.
Ten μL of the prepared S. cerevisiae JAY 270 cell suspension at OD600=0.02 or 0.2 was loaded onto the YPDA medium in each well of the 24-well plates. Then the plates were sealed with Parafilm and incubated at 30° C. for 24 h. There were four biological replicates for each treatment.
Yeast cell growth was evaluated by visual observation of the colony size in the well and scored as 0, +, ++, and +++.

S. cerevisiae JAY 270 [2] = assay: Growth test in liquid YNB medium, low/high nitrogen, serum bottles; details: 40, 200, 1000 mg/L; low and high nitrogen media
Description: A second set of tests was performed in a defined liquid medium, Yeast Nitrogen Base with Glucose (YNB), containing (NH4)2SO4 at either low (1 mM) or high (10 mM) nitrogen content. […] All serum bottles were incubated in a shaker at 30° C. and 150 RPM. Each treatment was performed in biological duplicate. Samples were collected at 0, 5, and 10 hours.

S. cerevisiae JAY 270 [3] = assay: Serum-bottle cultivation in YPD: biomass, glycerol, ethanol yields; details: YPD, serum bottles
Description: Procedure: Cultivations in serum bottles were used to determine the effect of the best-performing screened chemicals on the ethanol yield. S. cerevisiae JAY 270 was pre-cultured in 100 mL of YPD medium in 200-mL serum bottles overnight in a shaker at 30° C. and 200 rpm. The precultured yeast cells were collected and washed twice as described above. The cell pellet was resuspended in about 10 mL of 0.8% (w/v) NaCl and the cell concentration was estimated as OD600. TyrOH, PheOH, and TrpOH were added to 30 mL of YPD medium in 100-mL serum bottles at 0.05% and 0.2% respectively. The same amount of DMSO was added to YPD medium to serve as the control for TrpOH and TyrOH treatments. The bottles were inoculated with the prepared yeast cells to obtain an initial cell concentration of OD600=0.2. The serum bottles were sealed and cultured in a shaker at 30° C. and 200 rpm for 24 h. Each condition had three biological replicates.
Analytical methods: Cell growth was evaluated by monitoring OD600 and cell dry mass concentration. For dry mass measurements, 1.0 mL of culture was transferred to a pre-dried and pre-weighed 2-mL centrifuge tube. The tubes were centrifuged for 10 min at 14000 rpm using a microcentrifuge, and then the cell pellets were dried in an oven for 3 days at 65° C. The cell dry mass was determined by subtracting the initial tube mass from the dried mass of tube with cells. The concentrations of glucose, ethanol, and glycerol were measured via HPLC (Shimadzu LC20A series) outfitted with a refractive index detector and using an Aminex HPX-87H (300×7.8 mm) organic acid column and Cation H+ guard cartridge (Bio Rad Laboratories, Hercules, CA). The column was maintained at 65° C. and the mobile phase was 5 mM sulfuric acid with a flow rate of 0.6 mL/min. Standard compound solutions were used to calibrate the HPLC. Each sample was analyzed three times by HPLC.

With `Nc1nc[nH]n1` [3-amino-1,2,4-triazole] the “Cell growth score (colony size)” value (S. cerevisiae JAY 270 [1]; 0.03% (w/v)) was “+++”, the “Cell growth score (colony size)” value (S. cerevisiae JAY 270 [1]; 0.05% (w/v)) was “+++” and the “Cell growth score (colony size)” value (S. cerevisiae JAY 270 [1]; 0.10% (w/v)) was “+++”. For the same compound, the “Cell growth score (colony size)” value (S. cerevisiae JAY 270 [1]; 0.20% (w/v)) was “+++” and the “Effect on cell growth in the plate assay (words)” value (shortened to “Effect on cell growth”) (S. cerevisiae JAY 270 [1]) was “did not inhibit cell growth”.

`OB(O)O` [Boric acid, reference compound] was tested, and the “Cell growth score (colony size)” value (S. cerevisiae JAY 270 [1]; 0.03% (w/v)) was “+++”, the “Cell growth score (colony size)” value (S. cerevisiae JAY 270 [1]; 0.05% (w/v)) was “+++” and the “Cell growth score (colony size)” value (S. cerevisiae JAY 270 [1]; 0.10% (w/v)) was “++”. The “Cell growth score (colony size)” value (S. cerevisiae JAY 270 [1]; 0.20% (w/v)) was “+”, the “Effect on cell growth” value (S. cerevisiae JAY 270 [1]) was “inhibited growth; also recorded: reduced the growth” and the “Inhibitory effect on yeast cell growth in liquid YNB medium” value (S. cerevisiae JAY 270 [2]) was “little or no growth inhibition effects”. The Biomass Yield (S. cerevisiae JAY 270 [3]; 0.05% (w/v)) was 0.137 + 0.001 g/g, the “Biomass yield % change vs. control” value (S. cerevisiae JAY 270 [3]; 0.05% (w/v)) was 0% and the EtOH yield (S. cerevisiae JAY 270 [3]; 0.05% (w/v)) was 0.41 ± 0.00 g/g. The “EtOH yield % change vs. control” value (S. cerevisiae JAY 270 [3]; 0.05% (w/v)) was 0%, the Glycerol yield (S. cerevisiae JAY 270 [3]; 0.05% (w/v)) was 0.024 ± 0.001 g/g and the “Glycerol yield % change vs. control” value (S. cerevisiae JAY 270 [3]; 0.05% (w/v)) was 0%. The “Biomass yield vs. reference” value (S. cerevisiae JAY 270 [3]; 0.05%) was 0%, the Ethanol yield (S. cerevisiae JAY 270 [3]; 0.05%) was 0.41 ± 0.00 g/g and the “Ethanol yield vs. reference” value (S. cerevisiae JAY 270 [3]; 0.05%) was 0%. The Glycerol yield (S. cerevisiae JAY 270 [3]; 0.05%) was 0.024 ± 0.001 g/g, the “Glycerol yield vs. reference” value (S. cerevisiae JAY 270 [3]; 0.05%) was −6.3% and the OD600 (S. cerevisiae JAY 270 [3]; 0.05%) was 4.78. For the same compound, the “Effect on ethanol yield” value (S. cerevisiae JAY 270 [3]; 0.05 and 0.2%) was “did not affect ethanol yield”, the Biomass Yield (S. cerevisiae JAY 270 [3]; 0.2% (w/v)) was 0.116 + 0.001 g/g and the “Biomass yield % change vs. control” value (S. cerevisiae JAY 270 [3]; 0.2% (w/v)) was −15* %. The EtOH yield (S. cerevisiae JAY 270 [3]; 0.2% (w/v)) was 0.41 ± 0.00 g/g, the “EtOH yield % change vs. control” value (S. cerevisiae JAY 270 [3]; 0.2% (w/v)) was 0% and the Glycerol yield (S. cerevisiae JAY 270 [3]; 0.2% (w/v)) was 0.027 ± 0.001 g/g. For the same compound, the “Glycerol yield % change vs. control” value (S. cerevisiae JAY 270 [3]; 0.2% (w/v)) was 6.9%, the “Biomass yield vs. reference” value (S. cerevisiae JAY 270 [3]; 0.2%) was −15.3% and the Ethanol yield (S. cerevisiae JAY 270 [3]; 0.2%) was 0.41 ± 0.00 g/g. The “Ethanol yield vs. reference” value (S. cerevisiae JAY 270 [3]; 0.2%) was 0%, the Glycerol yield (S. cerevisiae JAY 270 [3]; 0.2%) was 0.027 ± 0.000 g/g and the “Glycerol yield vs. reference” value (S. cerevisiae JAY 270 [3]; 0.2%) was 6.9%. The OD600 (S. cerevisiae JAY 270 [3]; 0.2%) was 3.96.

For `C[C@@H]1C[C@@H]([C@H](O)CC2CC(=O)NC(=O)C2)C(=O)[C@@H](C)C1` [Cycloheximide, cycloheximide, reference compound], the “Cell growth score (colony size)” value (S. cerevisiae JAY 270 [1]; 0.03% (w/v)) was 0, the “Cell growth score (colony size)” value (S. cerevisiae JAY 270 [1]; 0.05% (w/v)) was 0 and the “Cell growth score (colony size)” value (S. cerevisiae JAY 270 [1]; 0.10% (w/v)) was 0. For the same compound, the “Cell growth score (colony size)” value (S. cerevisiae JAY 270 [1]; 0.20% (w/v)) was 0, the “Effect on cell growth” value (S. cerevisiae JAY 270 [1]) was “inhibited all cell growth at all tested concentrations” and the “Effect on cell growth” value (S. cerevisiae JAY 270 [1]; listed as cycloheximide) was “inhibited growth; also recorded: reduced the growth”. For the same compound, the “Biomass yield % change vs. control” value (S. cerevisiae JAY 270 [3]; 0.1 mg/L) was −12* %, the “Biomass yield vs. reference” value (S. cerevisiae JAY 270 [3]; 0.1 mg/L) was −36.1% and the “Effect on ethanol yield” value (S. cerevisiae JAY 270 [3]; 0.1 mg/L) was “slight decrease of ethanol yield”. The EtOH yield (S. cerevisiae JAY 270 [3]; 0.1 mg/L) was 0.42 ± 0.01 g/g, the “EtOH yield % change vs. control” value (S. cerevisiae JAY 270 [3]; 0.1 mg/L) was −3.5% and the Ethanol yield (S. cerevisiae JAY 270 [3]; 0.1 mg/L) was 0.42 ± 0.01 g/g. For the same compound, the “Ethanol yield vs. reference” value (S. cerevisiae JAY 270 [3]; 0.1 mg/L) was 0%, the “Glycerol yield % change vs. control” value (S. cerevisiae JAY 270 [3]; 0.1 mg/L) was −48* % and the “Glycerol yield vs. reference” value (S. cerevisiae JAY 270 [3]; 0.1 mg/L) was 0.4%. It also gave an OD600 (S. cerevisiae JAY 270 [3]; 0.1 mg/L) of 2.82 and an OD600 (S. cerevisiae JAY 270 [3]; 0.4 mg/L) of 0.22.

`CC(C)=CCCC(C)=CCCC(C)=CCO` [Farnesol, farnesol] was tested, and the “Cell growth score (colony size)” value (S. cerevisiae JAY 270 [1]; 0.03% (w/v)) was “+++”, the “Cell growth score (colony size)” value (S. cerevisiae JAY 270 [1]; 0.05% (w/v)) was “+++” and the “Cell growth score (colony size)” value (S. cerevisiae JAY 270 [1]; 0.10% (w/v)) was “+++”. For the same compound, the “Cell growth score (colony size)” value (S. cerevisiae JAY 270 [1]; 0.20% (w/v)) was “+++” and the “Effect on cell growth” value (S. cerevisiae JAY 270 [1]) was “did not inhibit cell growth”.

For `CP(=O)(O)CCC(N)C(=O)O` (stereo not drawn) [Glufosinate ammonium, glufosinate ammonium], the “Cell growth score (colony size)” value (S. cerevisiae JAY 270 [1]; 0.03% (w/v)) was “+++”, the “Cell growth score (colony size)” value (S. cerevisiae JAY 270 [1]; 0.05% (w/v)) was “+++” and the “Cell growth score (colony size)” value (S. cerevisiae JAY 270 [1]; 0.10% (w/v)) was “+++”. The “Cell growth score (colony size)” value (S. cerevisiae JAY 270 [1]; 0.20% (w/v)) was “+++” and the “Effect on cell growth” value (S. cerevisiae JAY 270 [1]) was “did not inhibit cell growth”.
